# Data taken from patent US11395857B2, “Radiolabeled melanocortin 1 receptor-specific alpha-melanocyte-stimulating hormone analogues for imaging or therapy” (PROVINCIAL HEALTH SERVICES AUTHORITY, priority 2018, dated 2022).
# Where two headings read alike, the source gives them in different places.
# Legend:
# SK-MEL-1 human melanoma = test: SPECT/CT imaging of mice bearing SK-MEL-1 human melanoma; format: in vivo, NRG mice; details: 24 h p.i.
# Experimental: SPECT/CT imaging experiments were conducted using the same conditions as described in Example 3. […] (FIG. 6).
# [1] = Biodistribution of 177Lu-labeled αMSH analogues in mice bearing B16F10 mouse melanoma; format: in vivo, C57BL/6J mice; details: mouse, iv, total radioactivity, C57BL/6J mice, B16F10 melanoma
# Experimental: (§1) The B16-F10 mouse melanoma cells were cultured and inoculated in mice as described in Example 1.
# (§2) For biodistribution studies, approximately 1-2 MBq of ^177Lu-labeled αMSH analogues via tail vein under anesthesia. At 1, 4, 24, and 120 h p.i., the mice were euthanized by CO2 inhalation. Organs/tissues were harvested and the radioactivity was measured as described in Example 1.
# B16F10 mouse melanoma = test: as above; format: in vivo, C57BL/6J mice; details: C57BL/6J mice, B16F10 melanoma
# Experimental: as §1, §2
compound,measurement,setting,value
"CCCC[C@H](NC(=O)CN1CCC(NC(=O)[C@H](CCCCNC(=O)CN2CCN(CC(=O)O)CCN(CC(=O)O)CCN(CC(=O)O)CC2)NC(=O)[C@H](CCC(=O)O)NC(=O)CCCc2ccc(I)cc2)CC1)C(=O)N[C@H]1CC(=O)NCCCC[C@@H](C(N)=O)N(C)C(=O)[C@H](Cc2c[nH]c3ccccc23)NC(=O)[C@H](CCCNC(=N)N)N(C)C(=O)[C@@H](Cc2ccccc2)NC(=O)[C@H](Cc2c[nH]cn2)NC1=O [^177Lu-labeled CCZ01118, metal not drawn]",Tumour uptake / retention in SPECT images,SK-MEL-1 human melanoma,lower tumour uptake was observed
same,tissue uptake at 1 h,"[1]; male, seminal glands, 1 h p.i., read-out: Biodistribution, Seminal glands",0.5 ± 0.11 %ID/g
same,tissue uptake at 4 h,"[1]; male, seminal glands, 4 h p.i., read-out: Biodistribution, Seminal glands",0.15 ± 0.06 %ID/g
same,tissue uptake at 24 h,"[1]; male, seminal glands, 24 h p.i., read-out: Biodistribution, Seminal glands",0.04 ± 0.01 %ID/g
same,tissue uptake at 120 h,"[1]; male, seminal glands, 120 h p.i., read-out: Biodistribution, Seminal glands",0.02 ± 0.01 %ID/g
same,tissue uptake at 1 h,"[1]; male, testes, 1 h p.i., read-out: Biodistribution, Testes",1.07 ± 0.11 %ID/g
same,tissue uptake at 4 h,"[1]; male, testes, 4 h p.i., read-out: Biodistribution, Testes",0.4 ± 0.14 %ID/g
same,tissue uptake at 24 h,"[1]; male, testes, 24 h p.i., read-out: Biodistribution, Testes",0.16 ± 0.02 %ID/g
same,tissue uptake at 120 h,"[1]; male, testes, 120 h p.i., read-out: Biodistribution, Testes",0.1 ± 0.01 %ID/g
same,tissue uptake at 1 h,"[1]; adrenal glands, 1 h p.i., read-out: Biodistribution, Adrenal glands",2.9 ± 1.51 %ID/g
same,tissue uptake at 4 h,"[1]; adrenal glands, 4 h p.i., read-out: Biodistribution, Adrenal glands",0.54 ± 0.48 %ID/g
same,tissue uptake at 24 h,"[1]; adrenal glands, 24 h p.i., read-out: Biodistribution, Adrenal glands",0.2 ± 0.09 %ID/g
same,tissue uptake at 120 h,"[1]; adrenal glands, 120 h p.i., read-out: Biodistribution, Adrenal glands",0.18 ± 0.06 %ID/g
same,tissue uptake at 1 h,"[1]; blood, 1 h p.i., read-out: Biodistribution, Blood",6.87 ± 0.88 %ID/g
same,tissue uptake at 4 h,"[1]; blood, 4 h p.i., read-out: Biodistribution, Blood",1.41 ± 0.6 %ID/g
same,tissue uptake at 24 h,"[1]; blood, 24 h p.i., read-out: Biodistribution, Blood",0.05 ± 0.02 %ID/g
same,tissue uptake at 120 h,"[1]; blood, 120 h p.i., read-out: Biodistribution, Blood",0.01 %ID/g
same,tissue uptake at 1 h,"[1]; bone, 1 h p.i., read-out: Biodistribution, Bone",0.96 ± 0.18 %ID/g
same,tissue uptake at 4 h,"[1]; bone, 4 h p.i., read-out: Biodistribution, Bone",0.29 ± 0.11 %ID/g
same,tissue uptake at 24 h,"[1]; bone, 24 h p.i., read-out: Biodistribution, Bone",0.13 ± 0.03 %ID/g
same,tissue uptake at 120 h,"[1]; bone, 120 h p.i., read-out: Biodistribution, Bone",0.12 ± 0.04 %ID/g
same,tissue uptake at 1 h,"[1]; brain, 1 h p.i., read-out: Biodistribution, Brain",0.13 ± 0.01 %ID/g
same,tissue uptake at 4 h,"[1]; brain, 4 h p.i., read-out: Biodistribution, Brain",0.03 ± 0.02 %ID/g
same,tissue uptake at 24 h,"[1]; brain, 24 h p.i., read-out: Biodistribution, Brain",0.01 %ID/g
same,tissue uptake at 120 h,"[1]; brain, 120 h p.i., read-out: Biodistribution, Brain",0.01 %ID/g
same,tissue uptake at 1 h,"[1]; fat, 1 h p.i., read-out: Biodistribution, Fat",0.43 ± 0.08 %ID/g
same,tissue uptake at 4 h,"[1]; fat, 4 h p.i., read-out: Biodistribution, Fat",0.12 ± 0.03 %ID/g
same,tissue uptake at 24 h,"[1]; fat, 24 h p.i., read-out: Biodistribution, Fat",0.03 ± 0.01 %ID/g
same,tissue uptake at 120 h,"[1]; fat, 120 h p.i., read-out: Biodistribution, Fat",0.02 ± 0.01 %ID/g
same,tissue uptake at 1 h,"[1]; heart, 1 h p.i., read-out: Biodistribution, Heart",1.93 ± 0.16 %ID/g
same,tissue uptake at 4 h,"[1]; heart, 4 h p.i., read-out: Biodistribution, Heart",0.45 ± 0.19 %ID/g
same,tissue uptake at 24 h,"[1]; heart, 24 h p.i., read-out: Biodistribution, Heart",0.08 ± 0.01 %ID/g
same,tissue uptake at 120 h,"[1]; heart, 120 h p.i., read-out: Biodistribution, Heart",0.05 %ID/g
same,tissue uptake at 1 h,"[1]; intestine, 1 h p.i., read-out: Biodistribution, Intestine",1.2 ± 0.2 %ID/g
same,tissue uptake at 4 h,"[1]; intestine, 4 h p.i., read-out: Biodistribution, Intestine",1.53 ± 2.04 %ID/g
same,tissue uptake at 24 h,"[1]; intestine, 24 h p.i., read-out: Biodistribution, Intestine",0.21 ± 0.05 %ID/g
same,tissue uptake at 120 h,"[1]; intestine, 120 h p.i., read-out: Biodistribution, Intestine",0.1 ± 0.04 %ID/g
same,tissue uptake at 1 h,"[1]; kidneys, 1 h p.i., read-out: Biodistribution, Kidneys",12 ± 0.83 %ID/g
same,tissue uptake at 4 h,"[1]; kidneys, 4 h p.i., read-out: Biodistribution, Kidneys",12.7 ± 3.58 %ID/g
same,tissue uptake at 24 h,"[1]; kidneys, 24 h p.i., read-out: Biodistribution, Kidneys",6.32 ± 0.43 %ID/g
same,tissue uptake at 120 h,"[1]; kidneys, 120 h p.i., read-out: Biodistribution, Kidneys",1.43 ± 0.31 %ID/g
same,tissue uptake at 1 h,"[1]; liver, 1 h p.i., read-out: Biodistribution, Liver",3.65 ± 0.25 %ID/g
same,tissue uptake at 4 h,"[1]; liver, 4 h p.i., read-out: Biodistribution, Liver",3.58 ± 0.85 %ID/g
same,tissue uptake at 24 h,"[1]; liver, 24 h p.i., read-out: Biodistribution, Liver",2.59 ± 0.31 %ID/g
same,tissue uptake at 120 h,"[1]; liver, 120 h p.i., read-out: Biodistribution, Liver",1.25 ± 0.51 %ID/g
same,tissue uptake at 1 h,"[1]; lungs, 1 h p.i., read-out: Biodistribution, Lungs",6.71 ± 3.02 %ID/g
same,tissue uptake at 4 h,"[1]; lungs, 4 h p.i., read-out: Biodistribution, Lungs",2.34 ± 0.63 %ID/g
same,tissue uptake at 24 h,"[1]; lungs, 24 h p.i., read-out: Biodistribution, Lungs",0.33 ± 0.08 %ID/g
same,tissue uptake at 120 h,"[1]; lungs, 120 h p.i., read-out: Biodistribution, Lungs",0.14 ± 0.08 %ID/g
same,tissue uptake at 1 h,"[1]; muscle, 1 h p.i., read-out: Biodistribution, Muscle",0.75 ± 0.09 %ID/g
same,tissue uptake at 4 h,"[1]; muscle, 4 h p.i., read-out: Biodistribution, Muscle",0.18 ± 0.09 %ID/g
same,tissue uptake at 24 h,"[1]; muscle, 24 h p.i., read-out: Biodistribution, Muscle",0.03 ± 0.01 %ID/g
same,tissue uptake at 120 h,"[1]; muscle, 120 h p.i., read-out: Biodistribution, Muscle",0.02 %ID/g
same,tissue uptake at 1 h,"[1]; pancreas, 1 h p.i., read-out: Biodistribution, Pancreas",1.13 ± 0.24 %ID/g
same,tissue uptake at 4 h,"[1]; pancreas, 4 h p.i., read-out: Biodistribution, Pancreas",0.31 ± 0.08 %ID/g
same,tissue uptake at 24 h,"[1]; pancreas, 24 h p.i., read-out: Biodistribution, Pancreas",0.08 ± 0.02 %ID/g
same,tissue uptake at 120 h,"[1]; pancreas, 120 h p.i., read-out: Biodistribution, Pancreas",0.05 ± 0.01 %ID/g
same,tissue uptake at 1 h,"[1]; spleen, 1 h p.i., read-out: Biodistribution, Spleen",2.06 ± 0.21 %ID/g
same,tissue uptake at 4 h,"[1]; spleen, 4 h p.i., read-out: Biodistribution, Spleen",1.02 ± 0.27 %ID/g
same,tissue uptake at 24 h,"[1]; spleen, 24 h p.i., read-out: Biodistribution, Spleen",0.64 ± 0.09 %ID/g
same,tissue uptake at 120 h,"[1]; spleen, 120 h p.i., read-out: Biodistribution, Spleen",0.35 ± 0.15 %ID/g
same,tissue uptake at 1 h,"[1]; stomach, 1 h p.i., read-out: Biodistribution, Stomach",0.74 ± 0.18 %ID/g
same,tissue uptake at 4 h,"[1]; stomach, 4 h p.i., read-out: Biodistribution, Stomach",2.33 ± 4.11 %ID/g
same,tissue uptake at 24 h,"[1]; stomach, 24 h p.i., read-out: Biodistribution, Stomach",0.42 ± 0.13 %ID/g
same,tissue uptake at 120 h,"[1]; stomach, 120 h p.i., read-out: Biodistribution, Stomach",0.2 ± 0.09 %ID/g
same,tissue uptake at 1 h,"[1]; thyroid, 1 h p.i., read-out: Biodistribution, Thyroid",2.47 ± 0.26 %ID/g
same,tissue uptake at 4 h,"[1]; thyroid, 4 h p.i., read-out: Biodistribution, Thyroid",1.66 ± 0.42 %ID/g
same,tissue uptake at 24 h,"[1]; thyroid, 24 h p.i., read-out: Biodistribution, Thyroid",1.59 ± 0.15 %ID/g
same,tissue uptake at 120 h,"[1]; thyroid, 120 h p.i., read-out: Biodistribution, Thyroid",1.03 ± 0.24 %ID/g
same,tissue to tissue ratio at 1 h,"[1]; tumour/blood, 1 h p.i., read-out: Tumour/blood",3.58 ± 0.31
same,tissue to tissue ratio at 4 h,"[1]; tumour/blood, 4 h p.i., read-out: Tumour/blood",24.3 ± 9.37
same,tissue to tissue ratio at 24 h,"[1]; tumour/blood, 24 h p.i., read-out: Tumour/blood",397 ± 123
same,tissue to tissue ratio at 120 h,"[1]; tumour/blood, 120 h p.i., read-out: Tumour/blood",339 ± 149
same,tissue to tissue ratio at 1 h,"[1]; tumour/kidney, 1 h p.i., read-out: Tumour/kidney",2.04 ± 0.15
same,tissue to tissue ratio at 4 h,"[1]; tumour/kidney, 4 h p.i., read-out: Tumour/kidney",2.47 ± 0.8
same,tissue to tissue ratio at 24 h,"[1]; tumour/kidney, 24 h p.i., read-out: Tumour/kidney",2.91 ± 0.2
same,tissue to tissue ratio at 120 h,"[1]; tumour/kidney, 120 h p.i., read-out: Tumour/kidney",1.89 ± 0.37
same,tissue to tissue ratio at 1 h,"[1]; tumour/muscle, 1 h p.i., read-out: Tumour/muscle",32.9 ± 2.98
same,tissue to tissue ratio at 4 h,"[1]; tumour/muscle, 4 h p.i., read-out: Tumour/muscle",194 ± 82.7
same,tissue to tissue ratio at 24 h,"[1]; tumour/muscle, 24 h p.i., read-out: Tumour/muscle",556 ± 108
same,tissue to tissue ratio at 120 h,"[1]; tumour/muscle, 120 h p.i., read-out: Tumour/muscle",173 ± 19
same,excreta dose per gram or mL at 1 h,"[1]; urine, 1 h p.i.",158 ± 83.1 %ID/g
same,excreta dose per gram or mL at 4 h,"[1]; urine, 4 h p.i.",124 ± 8.4 %ID/g
same,excreta dose per gram or mL at 24 h,"[1]; urine, 24 h p.i.",4.39 ± 2.89 %ID/g
same,excreta dose per gram or mL at 120 h,"[1]; urine, 120 h p.i.",1.11 ± 0.72 %ID/g
same,"Biodistribution, B16F10 tumour",B16F10 mouse melanoma; 1 h p.i.,24.4 ± 1.76 % ID/g
same,"Biodistribution, B16F10 tumour",B16F10 mouse melanoma; 4 h p.i.,29.7 ± 5.23 % ID/g
same,"Biodistribution, B16F10 tumour",B16F10 mouse melanoma; 24 h p.i.,18.4 ± 1.35 % ID/g
same,"Biodistribution, B16F10 tumour",B16F10 mouse melanoma; 120 h p.i.,2.63 ± 0.21 % ID/g
